How the values were obtained:
Test in all cases: Kinase assay, 1 mM ATP
Format in all cases: biochemical
RSK3 = RSK3 (Homo sapiens, UniProt Q15349)
Description: (§1) An off-chip mobility shift assay was performed by Carna Biosciences, Inc. (Kobe, Japan), according to their product instructions. […] The IC50 values were estimated according to the four-parameter logistic model.

CDC7/ASK = target: T1, CDC7/ASK (Homo sapiens, UniProt O00311)
T1 construct: purchased Carna Biosciences
Description: as §1

CK1ε = CK1ε (Homo sapiens, UniProt P49674)
Chain of CK1ε (P49674 whole entry): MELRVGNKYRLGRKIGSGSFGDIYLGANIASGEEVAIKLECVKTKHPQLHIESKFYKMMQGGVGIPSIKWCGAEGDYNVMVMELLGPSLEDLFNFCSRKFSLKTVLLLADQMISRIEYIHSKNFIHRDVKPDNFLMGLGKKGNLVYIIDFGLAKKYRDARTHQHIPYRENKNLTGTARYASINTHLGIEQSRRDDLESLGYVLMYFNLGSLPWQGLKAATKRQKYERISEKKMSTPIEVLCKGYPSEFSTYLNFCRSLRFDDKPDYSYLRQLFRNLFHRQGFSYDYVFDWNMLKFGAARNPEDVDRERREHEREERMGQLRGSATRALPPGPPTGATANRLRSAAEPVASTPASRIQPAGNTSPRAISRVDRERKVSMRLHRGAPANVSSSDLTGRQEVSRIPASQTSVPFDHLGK
Description: as §1

p70S6K = p70S6K (Homo sapiens, UniProt P23443)
Chain of p70S6K (P23443 whole entry): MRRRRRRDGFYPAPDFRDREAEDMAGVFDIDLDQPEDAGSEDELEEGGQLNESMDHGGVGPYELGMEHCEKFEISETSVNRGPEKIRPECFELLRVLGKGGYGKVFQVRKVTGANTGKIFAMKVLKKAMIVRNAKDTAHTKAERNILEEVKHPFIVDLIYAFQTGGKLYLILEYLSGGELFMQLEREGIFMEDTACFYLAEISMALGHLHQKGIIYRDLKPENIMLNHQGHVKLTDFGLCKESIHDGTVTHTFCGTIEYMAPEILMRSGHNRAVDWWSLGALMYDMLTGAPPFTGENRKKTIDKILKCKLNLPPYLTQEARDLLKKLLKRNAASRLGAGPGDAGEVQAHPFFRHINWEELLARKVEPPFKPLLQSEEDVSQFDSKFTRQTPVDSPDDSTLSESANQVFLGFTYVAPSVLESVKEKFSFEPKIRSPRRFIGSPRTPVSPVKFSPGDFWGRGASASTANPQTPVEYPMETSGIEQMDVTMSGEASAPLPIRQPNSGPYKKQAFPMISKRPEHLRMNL
Description: as §1

AMPKα1/β1/γ1 = AMPKα1/β1/γ1 (Homo sapiens, UniProt Q13131)
Description: as §1

CDK5/p25 = CDK5/p25 (Homo sapiens, UniProt Q00535)
Description: as §1

FES = FES (Homo sapiens, UniProt P07332)
Chain of FES (P07332 whole entry): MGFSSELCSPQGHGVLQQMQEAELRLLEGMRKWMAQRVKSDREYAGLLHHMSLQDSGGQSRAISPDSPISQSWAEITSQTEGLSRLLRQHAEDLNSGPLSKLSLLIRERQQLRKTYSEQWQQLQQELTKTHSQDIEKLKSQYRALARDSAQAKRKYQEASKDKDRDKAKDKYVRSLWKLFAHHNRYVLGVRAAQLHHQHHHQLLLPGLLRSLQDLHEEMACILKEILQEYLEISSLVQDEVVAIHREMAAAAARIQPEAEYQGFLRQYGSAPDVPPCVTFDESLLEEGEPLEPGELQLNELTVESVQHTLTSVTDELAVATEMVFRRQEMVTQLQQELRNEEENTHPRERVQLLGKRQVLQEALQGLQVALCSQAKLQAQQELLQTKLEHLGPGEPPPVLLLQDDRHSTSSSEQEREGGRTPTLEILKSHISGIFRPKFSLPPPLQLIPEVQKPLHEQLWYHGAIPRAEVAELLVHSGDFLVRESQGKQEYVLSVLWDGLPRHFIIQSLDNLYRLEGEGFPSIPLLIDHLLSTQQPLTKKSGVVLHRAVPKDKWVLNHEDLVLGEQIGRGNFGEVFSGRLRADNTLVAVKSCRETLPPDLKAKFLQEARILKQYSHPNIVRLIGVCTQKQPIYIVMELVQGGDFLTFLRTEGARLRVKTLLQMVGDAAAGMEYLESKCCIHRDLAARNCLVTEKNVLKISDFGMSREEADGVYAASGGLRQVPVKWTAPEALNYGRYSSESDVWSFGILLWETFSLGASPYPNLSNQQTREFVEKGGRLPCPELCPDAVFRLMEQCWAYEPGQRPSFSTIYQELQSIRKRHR
Description: as §1

AKT1 = AKT1 (Homo sapiens, UniProt P31749)
Description: as §1

EPHB2 = EPHB2 (Homo sapiens, UniProt P29323)
Description: as §1

NEK9 = target: T2, NEK9 (Homo sapiens, UniProt Q8TD19)
T2 construct: purchased Carna Biosciences
Description: as §1

ABL = ABL (Homo sapiens, UniProt P00519)
Description: as §1

PBK = target: T3, PBK (Homo sapiens, UniProt Q96KB5)
T3 construct: purchased Carna Biosciences
Description: as §1

MER = target: T4, MER (Homo sapiens, UniProt Q12866)
T4 construct: purchased Carna Biosciences
Description: as §1

EGFR(T790M/L858R) = target: T5, EGFR(T790M/L858R) (Homo sapiens, UniProt P00533, L858R/T790M)
T5 construct: purchased Carna Biosciences
Description: as §1

EPHB4 = EPHB4 (Homo sapiens, UniProt P54760)
Description: as §1

p38δ = p38δ (Homo sapiens, UniProt O15264)
Description: as §1

EGFR = EGFR (Homo sapiens, UniProt P00533)
Description: as §1

CSK = CSK (Homo sapiens, UniProt P41240)
Description: as §1

CHK1 = CHK1 (Homo sapiens, UniProt O14757)
Description: as §1

NEK7 = NEK7 (Homo sapiens, UniProt Q8TDX7)
Chain of NEK7 (Q8TDX7 whole entry): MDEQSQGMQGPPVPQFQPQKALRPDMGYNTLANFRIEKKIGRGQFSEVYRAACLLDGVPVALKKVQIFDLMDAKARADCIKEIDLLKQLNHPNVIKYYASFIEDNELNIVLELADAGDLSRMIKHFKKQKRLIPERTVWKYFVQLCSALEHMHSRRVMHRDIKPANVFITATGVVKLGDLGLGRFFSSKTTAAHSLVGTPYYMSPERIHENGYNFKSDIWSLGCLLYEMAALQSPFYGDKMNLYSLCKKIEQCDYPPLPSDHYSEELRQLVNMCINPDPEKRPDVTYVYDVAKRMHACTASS
Description: as §1

RET(G691S) = target: T6, RET(G691S) (Homo sapiens, UniProt P07949, G691S)
T6 construct: purchased Carna Biosciences
Description: as §1

LYNa = LYNa (Homo sapiens, UniProt P07948)
Description: as §1

SGK = target: T7, SGK (Homo sapiens, UniProt O00141)
T7 construct: purchased Carna Biosciences
T7 sequence (O00141 whole entry): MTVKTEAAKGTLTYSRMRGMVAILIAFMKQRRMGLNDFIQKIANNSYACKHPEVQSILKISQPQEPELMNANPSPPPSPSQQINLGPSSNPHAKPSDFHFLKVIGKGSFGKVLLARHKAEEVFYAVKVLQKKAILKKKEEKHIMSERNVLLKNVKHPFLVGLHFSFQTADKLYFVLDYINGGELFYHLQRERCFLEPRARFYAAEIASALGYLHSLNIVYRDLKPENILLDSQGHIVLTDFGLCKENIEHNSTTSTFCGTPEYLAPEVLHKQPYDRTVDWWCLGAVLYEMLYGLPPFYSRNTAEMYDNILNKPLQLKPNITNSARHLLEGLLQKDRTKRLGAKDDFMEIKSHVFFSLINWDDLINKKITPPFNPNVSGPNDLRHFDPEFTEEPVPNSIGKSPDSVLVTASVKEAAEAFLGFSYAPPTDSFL
Description: as §1

FGFR2 = FGFR2 (Homo sapiens, UniProt P21802)
Description: as §1

GSK3β = GSK3β (Homo sapiens, UniProt P49841)
Description: as §1

PDK1 = PDK1 (Homo sapiens, UniProt O15530)
Description: as §1

NEK2 = NEK2 (Homo sapiens, UniProt P51955)
Description: as §1

TYRO3 = target: T8, TYRO3 (Homo sapiens, UniProt Q06418)
T8 construct: purchased Carna Biosciences
Description: as §1

p38γ = p38γ (Homo sapiens, UniProt P53778)
Description: as §1

TSSK1 = target: T9, TSSK1 (Homo sapiens, UniProt Q9BXA7)
T9 construct: purchased Carna Biosciences
Description: as §1

CHK2 = target: T10, CHK2 (Homo sapiens, UniProt O96017)
T10 construct: purchased Carna Biosciences
Description: as §1

HER2 = HER2 (Homo sapiens, UniProt P04626)
Chain of HER2 (P04626 23-1255): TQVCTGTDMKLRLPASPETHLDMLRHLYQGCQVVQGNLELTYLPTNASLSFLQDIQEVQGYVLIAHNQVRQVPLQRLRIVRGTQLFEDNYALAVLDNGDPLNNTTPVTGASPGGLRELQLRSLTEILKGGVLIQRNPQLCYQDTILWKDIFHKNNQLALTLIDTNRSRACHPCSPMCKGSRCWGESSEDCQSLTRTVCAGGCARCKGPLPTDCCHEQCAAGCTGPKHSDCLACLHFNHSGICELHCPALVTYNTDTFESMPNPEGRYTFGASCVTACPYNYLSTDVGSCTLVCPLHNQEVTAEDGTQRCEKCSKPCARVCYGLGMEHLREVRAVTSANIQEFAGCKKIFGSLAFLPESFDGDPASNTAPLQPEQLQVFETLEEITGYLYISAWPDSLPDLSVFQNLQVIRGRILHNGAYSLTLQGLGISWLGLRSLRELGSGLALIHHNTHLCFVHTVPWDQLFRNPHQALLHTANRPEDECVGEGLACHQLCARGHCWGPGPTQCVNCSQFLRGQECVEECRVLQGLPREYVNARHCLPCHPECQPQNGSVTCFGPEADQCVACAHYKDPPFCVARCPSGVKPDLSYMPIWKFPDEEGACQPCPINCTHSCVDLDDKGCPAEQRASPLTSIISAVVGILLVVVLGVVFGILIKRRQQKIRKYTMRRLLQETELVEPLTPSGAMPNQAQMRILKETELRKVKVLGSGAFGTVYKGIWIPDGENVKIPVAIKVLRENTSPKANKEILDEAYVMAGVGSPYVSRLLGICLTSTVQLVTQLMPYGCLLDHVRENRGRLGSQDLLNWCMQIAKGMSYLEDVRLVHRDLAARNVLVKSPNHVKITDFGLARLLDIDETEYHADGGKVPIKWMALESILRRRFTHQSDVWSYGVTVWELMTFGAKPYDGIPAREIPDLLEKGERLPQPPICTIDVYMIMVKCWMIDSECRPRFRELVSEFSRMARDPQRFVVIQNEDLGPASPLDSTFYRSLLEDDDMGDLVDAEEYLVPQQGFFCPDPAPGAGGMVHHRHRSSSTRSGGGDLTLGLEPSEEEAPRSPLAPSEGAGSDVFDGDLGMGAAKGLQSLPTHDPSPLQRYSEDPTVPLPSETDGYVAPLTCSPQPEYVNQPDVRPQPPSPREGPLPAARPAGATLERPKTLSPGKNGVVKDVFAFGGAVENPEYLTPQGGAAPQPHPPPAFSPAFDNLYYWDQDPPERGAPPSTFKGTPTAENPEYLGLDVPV
Description: as §1

MAPKAPK2 = target: T11, MAPKAPK2 (Homo sapiens, UniProt P49137)
T11 construct: purchased Carna Biosciences
Description: as §1

MST1 = MST1 (Homo sapiens, UniProt Q13043)
Description: as §1

PIM1 = PIM1 (Homo sapiens, UniProt P11309)
Description: as §1

CDK2/CycE1 = CDK2/CycE1 (Homo sapiens, UniProt P24941)
Description: as §1

RET = target: T12, RET (Homo sapiens, UniProt P07949)
T12 construct: purchased Carna Biosciences
Description: as §1

DAPK1 = DAPK1 (Homo sapiens, UniProt P53355)
Description: as §1

TYK2 = TYK2 (Homo sapiens, UniProt P29597)
Chain of TYK2 (P29597 whole entry): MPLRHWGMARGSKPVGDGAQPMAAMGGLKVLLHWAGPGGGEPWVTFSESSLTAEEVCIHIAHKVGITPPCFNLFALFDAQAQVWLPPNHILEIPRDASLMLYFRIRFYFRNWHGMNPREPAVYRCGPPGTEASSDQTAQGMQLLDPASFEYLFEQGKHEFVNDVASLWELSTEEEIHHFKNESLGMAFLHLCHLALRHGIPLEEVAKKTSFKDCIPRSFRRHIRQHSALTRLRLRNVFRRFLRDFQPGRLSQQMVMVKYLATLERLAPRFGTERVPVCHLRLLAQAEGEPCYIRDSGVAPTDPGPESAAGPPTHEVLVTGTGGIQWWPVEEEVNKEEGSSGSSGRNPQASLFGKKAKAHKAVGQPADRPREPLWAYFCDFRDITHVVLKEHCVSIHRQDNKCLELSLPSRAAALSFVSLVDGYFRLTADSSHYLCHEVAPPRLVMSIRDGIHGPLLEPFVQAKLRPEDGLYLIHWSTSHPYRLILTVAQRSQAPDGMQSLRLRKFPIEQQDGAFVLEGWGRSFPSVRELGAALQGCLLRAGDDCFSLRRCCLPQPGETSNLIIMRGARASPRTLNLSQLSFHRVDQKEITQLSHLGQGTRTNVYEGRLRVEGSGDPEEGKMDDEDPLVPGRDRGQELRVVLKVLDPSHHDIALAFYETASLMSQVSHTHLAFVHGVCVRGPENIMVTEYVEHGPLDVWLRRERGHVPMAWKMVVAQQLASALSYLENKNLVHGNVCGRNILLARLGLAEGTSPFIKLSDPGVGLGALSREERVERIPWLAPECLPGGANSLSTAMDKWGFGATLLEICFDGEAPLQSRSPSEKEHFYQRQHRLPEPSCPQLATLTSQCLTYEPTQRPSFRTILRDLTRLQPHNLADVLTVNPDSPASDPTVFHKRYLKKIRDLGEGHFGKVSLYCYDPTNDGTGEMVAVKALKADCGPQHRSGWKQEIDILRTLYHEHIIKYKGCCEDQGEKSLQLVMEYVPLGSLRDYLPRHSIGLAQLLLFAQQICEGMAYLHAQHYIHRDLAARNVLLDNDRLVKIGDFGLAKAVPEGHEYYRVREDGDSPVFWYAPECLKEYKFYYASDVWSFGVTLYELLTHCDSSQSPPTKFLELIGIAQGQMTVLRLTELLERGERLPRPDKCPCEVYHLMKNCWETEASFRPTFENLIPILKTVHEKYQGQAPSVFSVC
Description: as §1

EPHA1 = EPHA1 (Homo sapiens, UniProt P21709)
Description: as §1

PLK3 = target: T13, PLK3 (Homo sapiens, UniProt Q9H4B4)
T13 construct: purchased Carna Biosciences
Description: as §1

EPHB1 = EPHB1 (Homo sapiens, UniProt P54762)
Description: as §1

C[C@@H](N)COc1ccc(-c2cnc3ccc(N[C@H](C)c4cccc(F)c4)nn23)cc1.O=C(O)CCCCC(=O)O [DS-6051b]
inhibition at 0.2 µM (RSK3): -3.2%
inhibition at 0.2 µM (CDC7/ASK): 8.5%
inhibition at 0.2 µM (CK1ε): -8.9%
inhibition at 0.2 µM (p70S6K): 8.3%
inhibition at 0.2 µM (AMPKα1/β1/γ1): -3.6%
inhibition at 0.2 µM (CDK5/p25): -7.4%
inhibition at 0.2 µM (FES): 5.1%
inhibition at 0.2 µM (AKT1): -1.3%
inhibition at 0.2 µM (EPHB2): -1.7%
inhibition at 0.2 µM (NEK9): -3.5%
inhibition at 0.2 µM (ABL): -1.1%
inhibition at 0.2 µM (PBK): -0.645%
inhibition at 0.2 µM (MER): 7.1%
inhibition at 0.2 µM (EGFR(T790M/L858R)): 4%
inhibition at 0.2 µM (EPHB4): -6.2%
inhibition at 0.2 µM (p38δ): -1.3%
inhibition at 0.2 µM (EGFR): 3.7%
inhibition at 0.2 µM (CSK): 1%
inhibition at 0.2 µM (CHK1): -1.2%
inhibition at 0.2 µM (NEK7): -2%
inhibition at 0.2 µM (RET(G691S)): -0.256%
inhibition at 0.2 µM (LYNa): 3.1%
inhibition at 0.2 µM (SGK): -3.8%
inhibition at 0.2 µM (FGFR2): 4.8%
inhibition at 0.2 µM (GSK3β): -23.2%
inhibition at 0.2 µM (PDK1): -4.9%
inhibition at 0.2 µM (NEK2): -0.8%
inhibition at 0.2 µM (TYRO3): -1.2%
inhibition at 0.2 µM (p38γ): 0.224%
inhibition at 0.2 µM (TSSK1): -2.6%
inhibition at 0.2 µM (CHK2): 0.3%
inhibition at 0.2 µM (HER2): 8.7%
inhibition at 0.2 µM (MAPKAPK2): -8.5%
inhibition at 0.2 µM (MST1): 11.5%
inhibition at 0.2 µM (PIM1): -3.6%
inhibition at 0.2 µM (CDK2/CycE1): -20.2%
inhibition at 0.2 µM (RET): 0.6%
inhibition at 0.2 µM (DAPK1): -0.6%
inhibition at 0.2 µM (TYK2): 8.3%
inhibition at 0.2 µM (EPHA1): 4.8%
inhibition at 0.2 µM (PLK3): -3.3%
inhibition at 0.2 µM (EPHB1): -3.5%

— PMC6688997 (Nature Communications, 2019)
